Patent publication US12029730B2, “Pharmaceutical composition for preventing or treating cancer, containing N-1H-benzimidazol-2-yl-3-(1H-pyrrole-1-yl)benzamide as active ingredient” (KOREA INSTITUTE OF RADIOLOGICAL & MEDICAL SCIENCES, priority 2018, dated 2024)

System: MASTL kinase (p-ENSA)
Assay: Western blotting of phosphorylated ENSA in MCF7 cells
Assay type: cell-based, human
Conditions: western blot, FIG. 5
Method: 20 μg of protein was separated by SDS-PAGE electrophoresis and transferred to a PVDF membrane, and the following specific antibodies were used: rabbit polyclonal antibody MASTL (Abgent); phospho-ENSA (Ser67)/ARPP19 (Ser62) (#5240), ENSA (#11915S), cleaved PARP (Asp214) (#9541), AKT (#9272), phospho-AKT (ser473) (#9271), phospho-GSK-3α/β (Ser21/9) (#9331), phospho-p70S6K (The 288) (#9205) and phospho-Chk2 (Thr68) (#2661; Cell Signaling Technology, MA); p70S6K (sc-230; Santa Cruz Biotechnology, CA, USA), phospho-H3 (S10) (06-570, Merck, NJ); mouse monoclonal antibody caspase-2 (#2224S). In addition, mouse […] antibody β-actin (C4; Santa Cruz Biotechnology, CA, USA) was used as a loading control, it was washed with 1×PBS/0.1% Tween 20, and the binding protein was detected using HRP-binding secondary antibody and improved chemiluminescence detection system. The remaining conditions of Western blotting were the same as in Example 3, and the image of the band was obtained by Amersham Imager 600 system (GE Healthcare Life Science) or X-Ray film (AG, HealthCare, SC, USA) and it was shown in FIG. 5.

**Q.** O=C(Nc1nc2ccccc2[nH]1)c1cccc(-n2cccc2)c1 [MKI-1, N-1H-benzimidazol-2-yl-3-(1H-pyrrol-1-yl) benzamide] was tested. Which “expression level of phosphorylated p-ENSA” value did it give?
**A.** Its value is “reduced the expression level of phosphorylated p-ENSA in MCF7 cells in a dose-dependent manner”.
